Marks after values point to notes of the source that are not given here.
Assays:
[1] = test system: non-transgenic or wild-type SOD1-expressing fish; assay: axonal and total body length in non-transgenic or wild-type SOD1-expressing fish; assay type: in vivo; details: zebrafish, average ± s.e.m.
Method: Y-axes show motor axon length of non-transgenic (black bar) or SOD1WT-expressing (white bar) zebrafish embryos, injected with either atg-RTK2 (shaded bars, Panel A) or atg-RTK1 morpholino (shaded bars, Panel B). Ctr-RTK2 and ctr-RTK1 were used as controls. Error bars are s.e.m.
To identify disease-modifying genes in ALS in an unbiased way, knockdown screening was performed in the mutant SOD1 zebrafish model (reference 13), using a library of 303 translation blocking morpholinos (atg-mo), of which 58 were targeting genes presumed to be neuronally expressed (according to the NCBI database) and 245 randomly chosen targeting genes. […] The morpholino yielding the highest rescue in two separate experiments was studied further. It targets zebrafish receptor tyrosine kinase 2 (RTK2, also known as epha4b), which has 67% identity and 80% homology to the human orthologue EPHA4. Knockdown of RTK2 in fish expressing mutant SOD1 completely and dose-dependently rescued the motor axonopathy (both axonal length and aberrant branching) caused by three different SOD1 mutations: A4V, G93A and G37R (FIG. 1, Panels A-F; Table 2). […] Receptor tyrosine kinase 1 (RTK1, also known as epha4a), the fish paralogue of RTK2, has 83% identity and 92% homology to human EPHA4. RTK1 knockdown was dose-dependently and equally protective as RTK2 knockdown (FIG. 1, Panel G; Table 4). […]

[2] = test system: mutant SOD1-overexpressing fish; assay: mutant SOD1-induced motor axonopathy in zebrafish embryos (percentage affected embryos, motor axon length); assay type: in vivo; details: 30 hpf
Source text: FIG. 1: EphA4 knockdown rescues mutant SOD1-induced motor axonopathy. […] Abnormal branching is indicated with arrowhead. Y-axes show motor axon length of zebrafish embryos expressing wild-type SOD1 (black bar, Panels D-G) or mutant SOD1 (white bar, Panels D-G). Knockdown of RTK2 in SOD1A4V- (Panel D), SOD1G93A- (Panel E) and SOD1G37R- (Panel F) expressing fish was established by co-injection of increasing amounts of atg-RTK2 morpholino (shaded bars). RTK1 expression was inhibited in SOD1A4V-expressing fish by co-injection of atg-RTK1 morpholino (shaded bars, Panel G). Ctr-RTK2 and ctr-RTK1 were used as control. ANOVA and Bonferroni's multiple comparison tests were used for statistical analysis. Comparing axonal length in SOD1A4V fish injected with ctr-RTK2 (n=39) vs. different doses atg-RTK2: 3 ng (n=43, p=0.0059), 4.5 ng (n=37, p=0.0016, Panel D), SOD1G93A: ctr-RTK2 (n=60) vs. atg-RTK2: 1.5 ng (n=55, p=0.015), 3 ng (n=51, p=2.82×10-9), 4.5 ng (n=46, p=2.22×10-15, Panel E), SOD1G37R: ctr-RTK2 (n=37) vs. atg-RTK2: 3 ng (n=25, p=0.027), 4.5 ng (n=36, p=0.0018, Panel F) and SOD1A4V: ctr-RTK1 (n=49) vs. atg-RTK1: 1.5 ng (n=51, p=2.51×10-7), 3 ng (n=64, p=7.99×10-10), 4.5 ng (n=54, p<1×10-20, Panel G). Western blot of SOD1WT or SOD1A4V (1.76 ng) expressing zebrafish embryos (30 hpf), co-injected with either ctr-RTK1 or atg-RTK1 (4.5 ng). Sixty embryos were used per group with actin as the loading control (H). Immunostaining of rtk1 (green) in rhombomeres 3 and 5 and of ephrin-b2 (magenta) in rhombomere 4 in zebrafish embryos injected with either ctr-RTK1 or atg-RTK1 (4.5 ng). RTK1-depleted embryos show disorganized rhombomere boundaries (arrowhead, I, Scale bar 50 μm). Error bars are s.e.m.
FIG. 2: RTK2 knockdown protects motor axons against SOD1^A4V-induced injury. Effect of RTK2 knockdown, established by injection of splice-rtk2 morpholino, on the motor axon length of SOD1^A4V-expressing zebrafish embryos (30 hpf). SOD1^WT-expressing fish and a non-functional five-base pair-mismatch control morpholino (ctr-RTK2) were used as control (Panel A). ANOVA and Bonferroni's multiple comparison tests were used for statistical analysis: SOD1^A4V/ctr-RTK2 (n=56) vs. SOD1^A4V/spl-RTK2 (n=60, 1.79×10^−4). Spl-RTK2 was designed against the exon 2 splice site of the zebrafish RTK2 pre-mRNA and alternatively skipped out exon 2. RT-PCR on non-transgenic fish (lane 1), ctr-RTK2-injected fish (lane 2) and spl-RTK2-injected fish (lane 3) at 30 hpf. Functional RTK2 mRNA, containing exon 2, is indicated by the 818-bp product (upper band) while non-functional RTK2 mRNA, lacking exon 2 is indicated by the 156-bp product (lower band), 60 embryos each group (Panel B). Error bars are s.e.m.
FIG. 12: Pharmacological inhibition of EphA4 receptor signaling protects against mutant SOD1 pathology in vivo. Effect of treatment with Compound 1 (C1, 500 μM) on the motor axon length of zebrafish embryos (30 hpf). DMSO (1/250 dilution) was used as control (Panel A). ANOVA and Bonferroni's multiple comparison tests were used for statistical analysis: SOD1^A4V/C1 (n=68) vs. SOD1^A4V/DMSO (n=76, p=3.54×10^−5). Effect of KYL-peptide (3 mM) treatment of 60-day-old SOD1^G93A rats on disease onset (Panel B) and survival (Panel C). Artificial CSF (ACSF) was used as control. Average disease onset: 133 days (treated, n=21) versus 125 days (control, n=17, T-test p=0.044). Average survival: 148 days (treated, n=21) versus 139 days (controls, n=17, T-test p=0.041). Error bars are s.e.m.
Effect of RTK2 knockdown (established by injection of atg-RTK2 morpholino) on the percentage of affected wild-type SOD1 or mutant SOD1 (A4V, G93A, G37R) zebrafish embryos (30 hpf). Ctr-RTK2 morpholino was used as control. An embryo was considered as affected when it had more than 10% abnormally branched motor axons. Significance of mtSOD1/ctr-RTK2 (4.5 ng) vs. mtSOD1/atg-RTK2 (4.5 ng) was determined by Mann-Whitney test, * p=0.0075, ° p=0.039 and # p=0.0052. […]

EphA4 = EphA4 (Homo sapiens, UniProt P54764); details: Noberini et al.; cited from earlier work
EphA4, sequence (P54764 20-986, species assumed): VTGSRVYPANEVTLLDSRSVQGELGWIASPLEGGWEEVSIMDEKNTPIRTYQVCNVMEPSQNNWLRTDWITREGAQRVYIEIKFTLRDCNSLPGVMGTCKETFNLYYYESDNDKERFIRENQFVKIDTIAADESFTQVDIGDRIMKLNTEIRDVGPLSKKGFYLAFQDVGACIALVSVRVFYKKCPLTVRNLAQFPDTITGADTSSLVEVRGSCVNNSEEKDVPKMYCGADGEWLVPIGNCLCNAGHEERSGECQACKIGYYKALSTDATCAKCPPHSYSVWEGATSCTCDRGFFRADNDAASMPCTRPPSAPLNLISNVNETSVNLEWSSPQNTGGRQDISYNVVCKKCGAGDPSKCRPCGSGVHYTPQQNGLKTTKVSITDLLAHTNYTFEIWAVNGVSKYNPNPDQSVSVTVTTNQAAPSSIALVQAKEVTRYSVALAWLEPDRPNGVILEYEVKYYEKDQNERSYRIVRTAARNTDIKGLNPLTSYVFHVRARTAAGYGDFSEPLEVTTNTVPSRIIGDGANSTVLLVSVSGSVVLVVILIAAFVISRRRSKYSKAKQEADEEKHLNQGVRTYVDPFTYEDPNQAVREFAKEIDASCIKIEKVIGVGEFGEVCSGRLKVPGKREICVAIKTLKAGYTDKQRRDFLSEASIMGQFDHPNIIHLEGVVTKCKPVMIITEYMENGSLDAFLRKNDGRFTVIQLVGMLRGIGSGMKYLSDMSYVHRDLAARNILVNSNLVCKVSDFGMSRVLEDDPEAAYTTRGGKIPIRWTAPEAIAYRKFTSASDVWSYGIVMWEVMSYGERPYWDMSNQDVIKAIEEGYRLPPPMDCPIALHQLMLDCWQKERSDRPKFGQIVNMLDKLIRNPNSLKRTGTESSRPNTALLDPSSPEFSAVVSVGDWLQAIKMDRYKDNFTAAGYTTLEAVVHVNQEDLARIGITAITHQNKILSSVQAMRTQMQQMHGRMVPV

Row | Compound | body length [1] [mm] | % affected embryos (more than 10% abnormally branched motor axons) ([2]; mtSOD1 A4V zebrafish embryos, morpholino 1.5 ng) | % affected embryos (more than 10% abnormally branched motor axons) ([2]; mtSOD1 A4V zebrafish embryos, morpholino 3.0 ng) | % affected embryos (more than 10% abnormally branched motor axons) ([2]; mtSOD1 A4V zebrafish embryos, morpholino 4.5 ng) | % affected embryos (more than 10% abnormally branched motor axons) ([2]; mtSOD1 G37R zebrafish embryos, morpholino 1.5 ng) | % affected embryos (more than 10% abnormally branched motor axons) ([2]; mtSOD1 G37R zebrafish embryos, morpholino 3.0 ng) | % affected embryos (more than 10% abnormally branched motor axons) ([2]; mtSOD1 G37R zebrafish embryos, morpholino 4.5 ng) | % affected embryos (more than 10% abnormally branched motor axons) ([2]; mtSOD1 G93A zebrafish embryos, morpholino 1.5 ng) | % affected embryos (more than 10% abnormally branched motor axons) ([2]; mtSOD1 G93A zebrafish embryos, morpholino 3.0 ng) | % affected embryos (more than 10% abnormally branched motor axons) ([2]; mtSOD1 G93A zebrafish embryos, morpholino 4.5 ng) [° %] | % affected embryos (more than 10% abnormally branched motor axons) ([2]; wtSOD1 zebrafish embryos, morpholino 4.5 ng) [%] | inhibition of ephrin binding to EphA4 (EphA4)
1 | 5′-AATCCAAAGGGTAGCCA-TTTTCAGG-′3 (antisense AATCCAAAGGGTAGCCATTTTCAGG; morpholino, chemistry not fully specified) [atg-RTK2] | 2.70±0.01 | 29 (41) % | 18 (44) % | 8* % | 34 (26) % | 8 (25) % | 16# % | 55 (47) % | 50 (54) % | 23 | 12 | –
2 | Cc1ccc(C)n1-c1ccc(O)c(C(=O)O)c1 [compound 2] | – | – | – | – | – | – | – | – | – | – | – | selectively inhibit ephrin binding to EphA4

From patent US9187784B2, “EphA4 is a disease modifier in motor neuron disease” (VIB VZW, priority 2011, dated 2015)
